Earlier results on one compound are cited in patent publication US20050069593A1, “Nutritional supplement containing 7-Keto-DHEA and conjugated linoleic acid” (LIFE TIME FITNESS, Inc., priority 2003, published 2005).

This series relates to brown adipose tissue. To be noted: in vitro; Dulloo, et al., Int. J. Obes. Relat. Metab. Disord. 24, 252 (2000).

As to `O=C(O[C@@H]1Cc2c(O)cc(O)cc2O[C@@H]1c1cc(O)c(O)c(O)c1)c1cc(O)c(O)c(O)c1` [EGCG, epigallocatechin gallate], the “respiration rate of brown adipose tissue” value is reported as “increased”.
